From PubChem BioAssay (NCI)
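Results reflect a 48-hour exposure of cells in 96-well plates to compound at five concentrations. GI50: concentration for 50% inhibition of growth. The concentration for full growth arrest is given as TGI.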

How the values were obtained:
Test in all cases: NCI-60 cell line screen, 48 h
CCRF-CEM leukemia = system: CCRF-CEM leukemia
MCF7 breast = system: MCF7 breast
SR leukemia = system: SR leukemia
EKVX NSCLC = system: EKVX NSCLC
SW-620 colon = system: SW-620 colon
PC-3 prostate = system: PC-3 prostate
TK-10 renal = system: TK-10 renal
NCI-H460 lung = system: NCI-H460 lung
M14 melanoma = system: M14 melanoma
LOX IMVI melanoma = system: LOX IMVI melanoma
SF-268 CNS = system: SF-268 CNS
A549 NSCLC = system: A549 NSCLC
ACHN renal = system: ACHN renal
HCT-116 colon = system: HCT-116 colon
NCI-H522 lung = system: NCI-H522 lung
SF-539 CNS = system: SF-539 CNS
A498 renal = system: A498 renal
U251 CNS = system: U251 CNS
CAKI-1 renal = system: CAKI-1 renal
MDA-MB-231 breast = system: MDA-MB-231 breast
SNB-75 CNS = system: SNB-75 CNS
UACC-62 melanoma = system: UACC-62 melanoma
HCC-2998 colon = system: HCC-2998 colon
RXF 393 renal = system: RXF 393 renal
SF-295 CNS = system: SF-295 CNS
OVCAR-8 ovarian = system: OVCAR-8 ovarian
UACC-257 melanoma = system: UACC-257 melanoma
KM12 colon = system: KM12 colon

With `COc1ccc(/C=N\NC(=O)c2ccc3nc(-c4ccc(Br)cc4)[nH]c3c2)cc1` the GI50 (CCRF-CEM leukemia) was 6.91 µM, the TGI (CCRF-CEM leukemia) was > 100 µM and the GI50 (MCF7 breast) was 1.92 µM. For the same compound, the TGI (MCF7 breast) was 5.81 µM, the GI50 (SR leukemia) was 2.1 µM and the TGI (SR leukemia) was 6.28 µM. For the same compound, the GI50 (EKVX NSCLC) was 2.22 µM, the TGI (EKVX NSCLC) was 5.27 µM and the GI50 (SW-620 colon) was 2.17 µM. The TGI (SW-620 colon) was 4.64 µM, the GI50 (PC-3 prostate) was 1.79 µM and the TGI (PC-3 prostate) was 3.72 µM. For the same compound, the GI50 (TK-10 renal) was 2.38 µM, the TGI (TK-10 renal) was 5.06 µM and the GI50 (NCI-H460 lung) was 1.74 µM. The TGI (NCI-H460 lung) was 3.37 µM, the GI50 (M14 melanoma) was 2.63 µM and the TGI (M14 melanoma) was 7.47 µM. The GI50 (LOX IMVI melanoma) was 1.93 µM, the TGI (LOX IMVI melanoma) was 4.17 µM and the GI50 (SF-268 CNS) was 2.31 µM. The TGI (SF-268 CNS) was 5.93 µM, the GI50 (A549 NSCLC) was 2.42 µM and the TGI (A549 NSCLC) was 6.03 µM. The GI50 (ACHN renal) was 2.27 µM, the TGI (ACHN renal) was 6.22 µM and the GI50 (HCT-116 colon) was 2.65 µM. The TGI (HCT-116 colon) was 6.07 µM, the GI50 (NCI-H522 lung) was 2.59 µM and the TGI (NCI-H522 lung) was 11.2 µM. It also gave a GI50 (SF-539 CNS) of 1.76 µM, a TGI (SF-539 CNS) of 3.47 µM and a GI50 (A498 renal) of 2.26 µM. For the same compound, the TGI (A498 renal) was 5.25 µM, the GI50 (U251 CNS) was 1.94 µM and the TGI (U251 CNS) was 3.55 µM. The GI50 (CAKI-1 renal) was 2.31 µM, the TGI (CAKI-1 renal) was 6.67 µM and the GI50 (MDA-MB-231 breast) was 2.43 µM. The TGI (MDA-MB-231 breast) was 5.93 µM, the GI50 (SNB-75 CNS) was 1.93 µM and the TGI (SNB-75 CNS) was 4.69 µM. The GI50 (UACC-62 melanoma) was 2.51 µM, the TGI (UACC-62 melanoma) was 7.2 µM and the GI50 (HCC-2998 colon) was 3.06 µM. It also gave a TGI (HCC-2998 colon) of 9.13 µM, a GI50 (RXF 393 renal) of 1.62 µM and a TGI (RXF 393 renal) of 3.49 µM. For the same compound, the GI50 (SF-295 CNS) was 1.99 µM, the TGI (SF-295 CNS) was 4.27 µM and the GI50 (OVCAR-8 ovarian) was 2.2 µM. For the same compound, the TGI (OVCAR-8 ovarian) was 5.16 µM, the GI50 (UACC-257 melanoma) was 2.14 µM and the TGI (UACC-257 melanoma) was 4.78 µM. The GI50 (KM12 colon) was 3.19 µM and the TGI (KM12 colon) was 12.8 µM.
